“Also recorded” adds a separate entry of the source.
Tests used:
Arabidopsis [1] = test: Arabidopsis root growth under itaconate combined with stress agents or sucrose; assay type: in vivo, Arabidopsis thaliana; conditions: 50 mM NaCl; 100 mM Mannitol
Description: (§1) Plant Growth. For the Arabidopsis treatments, compounds were added to sterile ½× Murashige and Skoog (MS) plant growth media, and the pH was adjusted to 5.7 using potassium hydroxide. Seeds were sterilized using 20% bleach and sowed on the treated plant growth media. Plants were incubated in a 16 h/8 h day/night cycle growth chamber at 22° C. for 7-14 days prior to phenotyping. For the maize treatments, compounds were added to water, and the pH was adjusted to 5.7 using potassium hydroxide. Maize seeds were sterilized using 20% bleach and grown in large size seed germination pouches (see, e.g., mega-international.com) with the treatment. Plants were incubated in a 16 h/8 h day/night cycle growth chamber at 28° C. night/21° C. day for 5 days prior to phenotyping.

Arabidopsis [2] = test: Arabidopsis seedling growth / primary root length on treated ½× MS media; assay type: in vivo, Arabidopsis thaliana
Description: as §1
Stock Solutions. 100 mM stock solutions of the various metabolites and itaconate were produced. Metabolites were dissolved using Milli-Q (MQ) water and the pH was adjusted to 5.7-5.8 using 1M KOH. The Ocyl-itaconate stock solution was dissolved in dimethyl sulfoxide (DMSO). Arabidopsis seeds were sterilized using 20% bleach and allowed to mix for 7 minutes. After mixing, seeds were rinsed with sterilized water 6 times. Sterilized seedlings were then placed on media filled square plates. Micropore tape was used to wrap the plates and aluminum foil was used to cover plates, before stratifying for 2 days in a 4° C. chamber. After stratification, seedlings were placed in 22° C. light chamber at intensity 625 lux for 7 days before scanning. All quantifications of the seedlings were performed on FIJI Image J. Seedlings with interesting phenotypes were then transferred to soil in 22° C. conditions with light intensity 625 lux.

maize = test: Maize seedling growth under treatment in seed germination pouches; assay type: in vivo
Description: as §1

ATP levels = test: Fluorescent ATP reporter line imaging; assay type: in vivo, Arabidopsis thaliana; conditions: 4-OI; meristem zone
From the text: (§2) Confocal Images. For Arabidopsis, most of the roots were stained by PI (Propidium iodide). Hormone reporter lines (GFP, 488 nm), hydrogen peroxide sensor lines (GFP, 488 nm; CFP, 408 nm) (see, Shi et al., Nat. Commun. 13:5040, 2022), ATP sensor lines (DeCol et al., eLife, 6:e26770, 2017) were observed under a Leica SP8 confocal microscope (CFP, 439 nm; VENUS, 516 nm).

DR5-GFP = test: Auxin reporter line imaging; assay type: in vivo, Arabidopsis thaliana; conditions: 4-OI treatment; compared to the control
From the text: as §2

pCYCB1; 1-CYCB1; 1-GFP = test: Cell cycle reporter line imaging; assay type: in vivo, Arabidopsis thaliana; conditions: 50 μM 4-OI; compared to the control
From the text: as §2

TCSn-GFP = test: Cytokinin signaling reporter line imaging; assay type: in vivo, Arabidopsis thaliana
From the text: as §2

pPIN1-PIN1-GFP = test: Auxin transport reporter line imaging; assay type: in vivo, Arabidopsis thaliana; conditions: 4-OI treatment
From the text: as §2

superoxide = test: NBT staining of Arabidopsis roots (ROS); assay type: in vivo, Arabidopsis thaliana; conditions: NBT and H2DCFDA staining; 1 mM itaconate, 50 μM 4-OI
Description: ROS staining. For ROS staining, superoxides were detected using NBT; and hydrogen peroxide was detected using 2′,7′-dichlorodihydrofluorescein diacetate (H2DCFDA).
NBT staining procedures were carried out as described in Kumar et al., Bio-protcol, 4:e1108, 2014. Briefly, a 0.2% solution of NBT was made in a 50 mM sodium phosphate buffer. This solution was used to soak seedlings for 2 minutes in the dark and was then rinsed using deionized (DI) water. Images were taken on a with a 1× objective with a Nikon SMZ1270 Stereo microscope.

6×ABRE-R:erGFP = test: ABA signaling reporter line imaging; assay type: in vivo, Arabidopsis thaliana; conditions: 4-OI treatment
From the text: as §2

[3] = test system: root meristem and mature cells; test: Aconitate treatment of roots; assay type: in vivo; conditions: treatment with aconitate

Compound: [Cl-].[Na+] [NaCl, sodium chloride]
- root growth under stress agent alone (Arabidopsis [1]): decrease root growth

Compound: CC(CC(=O)O)C(=O)O (stereo not shown) [2-methyl succinate, reference compound]
- impact on Arabidopsis (primary root length) (Arabidopsis [2]; 0.5 mM 2-methyl succinate): does not impact Arabidopsis
- impact on Arabidopsis (primary root length) (Arabidopsis [2]; 2 mM 2-methyl succinate): does not impact Arabidopsis

Compound: OC[C@@H](O)[C@@H](O)[C@H](O)[C@H](O)CO [mannitol]
- root growth under stress agent alone (Arabidopsis [1]): decrease root growth

Compound: C=C(CC(=O)O)C(=O)O [itaconate]
- increased growth (maize; maize treated with itaconate, p=0.01): 30%
- decreased growth (Arabidopsis [2]; Arabidopsis, same concentration of itaconate as maize, p<0.0001): 25%

Compound: C=C(CC(=O)OCCCCCCCC)C(=O)O [4-OI, 4-octyl itaconate]
- maize root growth (maize; 50 μM 4-OI for 5 days): enhanced maize root growth
- maize shoot growth (maize; 50 μM 4-OI for 5 days): without affecting shoot growth
- ATP levels (ATP levels): increased ATP levels
- DR5-GFP fluorescent intensity (DR5-GFP): significantly induced; also recorded: is increased
- number of actively dividing cells (pCYCB1; 1-CYCB1; 1-GFP): significant reduction
- TCSn-GFP signal in the QC (TCSn-GFP; 4-OI treatment): increases the signal in the QC
- TCSn-GFP intensity in the columella (TCSn-GFP; itaconate or 4-OI treatment): decrease; also recorded: reduces
- pPIN1-PIN1-GFP fluorescent intensity and area (pPIN1-PIN1-GFP): reduces both the pPIN1-PIN1-GFP fluorescent intensity and area
- Arabidopsis growth (Arabidopsis [2]; 4-OI, 4 day old seedlings treated for 3 days): inhibits Arabidopsis growth in a dose-dependent manner
- plant growth (Arabidopsis [2]; Arabidopsis, 50 μM 4-OI): nearly arrested plant growth
- root gravitropic orientation (Arabidopsis [2]; Arabidopsis, 4-OI (50 μM)): roots lose their gravitropic orientation; also recorded: defective gravitropic phenotype
- ROS levels in Arabidopsis roots (superoxide): decrease in ROS levels; also recorded: repress
- 6×ABARE-R:erGFP intensity in the roots (6×ABRE-R:erGFP): induces

Compound: C#CCCCCCCOC(=O)CC(=C)C(=O)O [ITalk, itaconate-alkyne, reference compound]
- phenotype induced by ITalk treatment (Arabidopsis [2]; Arabidopsis, 1 μM and 10 μM iTalk): closely resembles that of 4-OI

Compound: O=C(O)/C=C(/CC(=O)O)C(=O)O [aconitate]
- length of mature cells [3]: increased the length of mature cells
- meristem cell number [3]: inhibited meristem cell number

From US20260271924A1, “COMPOSITIONS FOR MODULATING PLANT GROWTH AND STRESS TOLERANCE, AND METHODS OF USE THEREOF” (The Regents of the University of California, priority 2023, published 2026)
